Laboratory results: ChEMBL document CHEMBL1157712, “Hit to lead account of the discovery of bisbenzamide and related ureidobenzamide inhibitors of Rho kinase” (J Med Chem, 2010)

What was measured:
[1] = target: cGMP-dependent protein kinase 1 (Homo sapiens, UniProt Q13976); experiment: Inhibition of PRKG1
[2] = target: Protein kinase C alpha type (Homo sapiens) (UniProt P17252); experiment: Inhibition of PKCalpha; details: values are per cent of control
[3] = target: Rho-associated protein kinase 2 (Homo sapiens, UniProt O75116)
Description: Inhibition of human ROCK2 by homogenous luciferase assay

[4] = target: Casein kinase I isoform alpha (Homo sapiens) (UniProt P48729); experiment: Inhibition of CK1 at 3 uM relative to control; values are per cent of control
[5] = Inhibition of CK2 at 3 uM relative to control; values are per cent of control
[6] = target: Tyrosine-protein kinase CSK (Homo sapiens) (UniProt P41240); experiment: Inhibition of CSK at 3 uM relative to control; values are per cent of control
[7] = Inhibition of PKA at 3 uM relative to control; values are per cent of control
[8] = Inhibition of AMPK at 3 uM relative to control; values are per cent of control
[9] = target: Mitogen-activated protein kinase 15 (Homo sapiens) (UniProt Q8TD08); experiment: Inhibition of ERK8 at 3 uM relative to control; values are per cent of control
[10] = target: MAP kinase-interacting serine/threonine-protein kinase 1 (Homo sapiens) (UniProt Q9BUB5); experiment: Inhibition of MNK1 at 3 uM relative to control; values are per cent of control
[11] = target: Serine/threonine-protein kinase 3 (Homo sapiens) (UniProt Q13188); experiment: Inhibition of MST2 at 3 uM relative to control; values are per cent of control
[12] = target: Serine/threonine-protein kinase PLK1 (Homo sapiens, UniProt P53350); experiment: Inhibition of PLK1 at 3 uM relative to control; values are per cent of control
[13] = target: Serine/threonine-protein kinase Nek2 (Homo sapiens) (UniProt P51955); experiment: Inhibition of NEK2a at 3 uM relative to control; values are per cent of control
[14] = target: Myosin light chain kinase, smooth muscle (Homo sapiens) (UniProt Q15746); experiment: Inhibition of SMMLCK at 3 uM relative to control; values are per cent of control
[15] = target: MAP kinase-activated protein kinase 2 (Homo sapiens) (UniProt P49137); experiment: Inhibition of MAPKAPK2 at 3 uM relative to control; values are per cent of control
[16] = target: Glycogen synthase kinase-3 beta (Homo sapiens) (UniProt P49841); experiment: Inhibition of GSK3-beta at 3 uM relative to control; values are per cent of control
[17] = target: Ribosomal protein S6 kinase alpha-1 (Homo sapiens) (UniProt Q15418); experiment: Inhibition of MAPKAPK1A at 3 uM relative to control; values are per cent of control
[18] = target: Serine/threonine-protein kinase pim-2 (Homo sapiens, UniProt Q9P1W9); experiment: Inhibition of PIM2
[19] = target: Tyrosine-protein kinase Lyn (Homo sapiens, UniProt P07948); experiment: Inhibition of LYN
Focal adhesion kinase 1 = Focal adhesion kinase 1 (Homo sapiens, UniProt Q05397); experiment: Inhibition of PTK2
[20] = target: Protein kinase C delta type (Homo sapiens, UniProt Q05655); experiment: Inhibition of PRKCD
Cytochrome P450 2D6 = Cytochrome P450 2D6 (Homo sapiens, UniProt P10635); experiment: Inhibition of human CYP2D6 by fluorescence assay; format: ADME
Cytochrome P450 3A4 = Cytochrome P450 3A4 (Homo sapiens, UniProt P08684); experiment: Inhibition of human CYP3A4 by LCMS/MS assay; format: ADME
[21] = target: MAP/microtubule affinity-regulating kinase 3 (Homo sapiens) (UniProt P27448); details: 3 to 6 uM
Description: Inhibition of MARK3 at 3 to 6 uM relative to control

[22] = target: MAP kinase-interacting serine/threonine-protein kinase 1 (Homo sapiens) (UniProt Q9BUB5); details: 3 to 6 uM
Description: Inhibition of MNK1 at 3 to 6 uM relative to control

[23] = target: MAP kinase-interacting serine/threonine-protein kinase 2 (Homo sapiens) (UniProt Q9HBH9); details: 3 to 6 uM
Description: Inhibition of MNK2 at 3 to 6 uM relative to control

[24] = target: Mitogen-activated protein kinase 14 (Homo sapiens) (UniProt Q16539); details: 3 to 6 uM
Description: Inhibition of p38a at 3 to 6 uM relative to control

[25] = target: Ribosomal protein S6 kinase beta-1 (Homo sapiens) (UniProt P23443); details: 3 to 6 uM
Description: Inhibition of S6K1 at 3 to 6 uM relative to control

[26] = target: Aurora kinase B (Homo sapiens) (UniProt Q96GD4); details: 3 to 6 uM
Description: Inhibition of Aurora B at 3 to 6 uM relative to control

[27] = target: Calcium/calmodulin-dependent protein kinase type 1 (Homo sapiens) (UniProt Q14012); details: 3 to 6 uM
Description: Inhibition of CAMK1 at 3 to 6 uM relative to control

[28] = target: Serine/threonine-protein kinase Chk1 (Homo sapiens) (UniProt O14757); details: 3 to 6 uM
Description: Inhibition of CHK1 at 3 to 6 uM relative to control

[29] = target: Death-associated protein kinase 1 (Homo sapiens) (UniProt P53355); details: 3 to 6 uM
Description: Inhibition of DAPK1 at 3 to 6 uM relative to control

[30] = target: Eukaryotic elongation factor 2 kinase (Homo sapiens) (UniProt O00418); details: 3 to 6 uM
Description: Inhibition of EF2K at 3 to 6 uM relative to control

[31] = target: Epidermal growth factor receptor (Homo sapiens) (UniProt P00533); details: 3 to 6 uM
Description: Inhibition of EGFR at 3 to 6 uM relative to control

[32] = target: Mitogen-activated protein kinase 15 (Homo sapiens) (UniProt Q8TD08); details: 3 to 6 uM
Description: Inhibition of ERK8 at 3 to 6 uM relative to control

[33] = target: Mitogen-activated protein kinase 8 (Homo sapiens) (UniProt P45983); details: 3 to 6 uM
Description: Inhibition of JNK1a1 at 3 to 6 uM relative to control

[34] = target: Mitogen-activated protein kinase 10 (Homo sapiens) (UniProt P53779); details: 3 to 6 uM
Description: Inhibition of JNK3a1 at 3 to 6 uM relative to control

[35] = target: Leucine-rich repeat serine/threonine-protein kinase 2 (Homo sapiens) (UniProt Q5S007); details: 3 to 6 uM
Description: Inhibition of LRRK2 at 3 to 6 uM relative to control

Sequence of Mitogen-activated protein kinase 15 (Homo sapiens) (Q8TD08 whole entry): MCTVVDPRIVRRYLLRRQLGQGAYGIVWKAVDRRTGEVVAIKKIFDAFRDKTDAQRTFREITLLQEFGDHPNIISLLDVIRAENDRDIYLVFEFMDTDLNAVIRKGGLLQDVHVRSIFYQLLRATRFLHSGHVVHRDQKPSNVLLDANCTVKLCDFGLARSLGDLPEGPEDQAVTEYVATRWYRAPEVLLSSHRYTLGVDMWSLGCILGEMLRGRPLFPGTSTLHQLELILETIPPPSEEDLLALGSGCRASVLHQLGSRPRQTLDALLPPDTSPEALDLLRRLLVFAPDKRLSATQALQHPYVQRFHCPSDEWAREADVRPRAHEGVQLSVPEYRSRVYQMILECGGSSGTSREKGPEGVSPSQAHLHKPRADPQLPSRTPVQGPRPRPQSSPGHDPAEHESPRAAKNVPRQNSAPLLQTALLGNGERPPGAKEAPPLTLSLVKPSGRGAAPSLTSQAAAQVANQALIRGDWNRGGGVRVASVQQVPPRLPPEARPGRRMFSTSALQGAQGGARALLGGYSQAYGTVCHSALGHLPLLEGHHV
Sequence of MAP kinase-interacting serine/threonine-protein kinase 1 (Homo sapiens) (Q9BUB5 whole entry, looked up): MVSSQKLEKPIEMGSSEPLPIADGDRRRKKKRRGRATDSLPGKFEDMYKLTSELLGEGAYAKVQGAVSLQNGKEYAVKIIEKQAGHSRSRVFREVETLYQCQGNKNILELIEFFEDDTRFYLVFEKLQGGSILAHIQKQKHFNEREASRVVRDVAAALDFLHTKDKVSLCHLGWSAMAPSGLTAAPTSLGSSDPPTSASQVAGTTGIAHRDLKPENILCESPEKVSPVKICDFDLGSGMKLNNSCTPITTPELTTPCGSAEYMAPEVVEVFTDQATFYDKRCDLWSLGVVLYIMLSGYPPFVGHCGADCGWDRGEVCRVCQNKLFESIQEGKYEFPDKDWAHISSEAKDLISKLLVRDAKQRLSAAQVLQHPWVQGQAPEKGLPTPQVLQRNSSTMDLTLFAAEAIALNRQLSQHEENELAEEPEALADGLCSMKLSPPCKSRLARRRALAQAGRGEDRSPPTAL
Sequence of Rho-associated protein kinase 2 (O75116 whole entry, canonical isoform): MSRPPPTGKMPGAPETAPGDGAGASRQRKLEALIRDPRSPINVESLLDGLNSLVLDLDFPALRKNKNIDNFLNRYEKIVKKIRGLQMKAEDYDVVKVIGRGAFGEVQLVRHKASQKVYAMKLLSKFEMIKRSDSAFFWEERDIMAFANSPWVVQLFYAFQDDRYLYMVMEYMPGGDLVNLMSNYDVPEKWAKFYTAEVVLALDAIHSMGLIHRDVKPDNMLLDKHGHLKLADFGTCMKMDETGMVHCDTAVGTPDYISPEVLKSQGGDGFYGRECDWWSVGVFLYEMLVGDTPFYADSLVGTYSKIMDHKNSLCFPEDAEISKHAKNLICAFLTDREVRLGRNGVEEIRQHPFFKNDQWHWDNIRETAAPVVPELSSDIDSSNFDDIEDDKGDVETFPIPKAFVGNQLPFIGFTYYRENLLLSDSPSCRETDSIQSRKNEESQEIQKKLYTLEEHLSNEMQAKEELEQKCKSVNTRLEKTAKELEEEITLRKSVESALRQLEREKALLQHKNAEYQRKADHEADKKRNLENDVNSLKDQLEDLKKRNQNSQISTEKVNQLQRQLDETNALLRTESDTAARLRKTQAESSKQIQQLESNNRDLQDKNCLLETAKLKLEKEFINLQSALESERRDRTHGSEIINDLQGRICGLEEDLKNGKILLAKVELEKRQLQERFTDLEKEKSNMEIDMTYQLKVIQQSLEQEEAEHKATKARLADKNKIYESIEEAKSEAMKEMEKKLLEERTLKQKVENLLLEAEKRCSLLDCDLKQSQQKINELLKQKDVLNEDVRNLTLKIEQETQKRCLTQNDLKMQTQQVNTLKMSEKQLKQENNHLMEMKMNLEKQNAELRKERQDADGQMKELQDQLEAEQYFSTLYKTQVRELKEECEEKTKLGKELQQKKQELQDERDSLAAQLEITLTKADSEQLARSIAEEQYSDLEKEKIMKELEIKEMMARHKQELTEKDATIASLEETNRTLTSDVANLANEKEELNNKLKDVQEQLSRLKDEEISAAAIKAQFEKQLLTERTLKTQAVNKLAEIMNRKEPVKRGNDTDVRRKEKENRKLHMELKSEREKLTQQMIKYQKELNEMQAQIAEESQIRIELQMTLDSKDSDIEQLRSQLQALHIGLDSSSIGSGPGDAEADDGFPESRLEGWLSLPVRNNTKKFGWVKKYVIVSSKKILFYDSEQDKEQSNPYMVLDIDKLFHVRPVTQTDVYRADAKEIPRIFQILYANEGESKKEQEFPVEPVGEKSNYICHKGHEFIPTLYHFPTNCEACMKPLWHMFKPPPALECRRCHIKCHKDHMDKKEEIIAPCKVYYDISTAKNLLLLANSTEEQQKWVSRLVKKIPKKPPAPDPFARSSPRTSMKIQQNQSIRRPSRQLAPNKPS
Sequence of cGMP-dependent protein kinase 1 (Q13976 whole entry): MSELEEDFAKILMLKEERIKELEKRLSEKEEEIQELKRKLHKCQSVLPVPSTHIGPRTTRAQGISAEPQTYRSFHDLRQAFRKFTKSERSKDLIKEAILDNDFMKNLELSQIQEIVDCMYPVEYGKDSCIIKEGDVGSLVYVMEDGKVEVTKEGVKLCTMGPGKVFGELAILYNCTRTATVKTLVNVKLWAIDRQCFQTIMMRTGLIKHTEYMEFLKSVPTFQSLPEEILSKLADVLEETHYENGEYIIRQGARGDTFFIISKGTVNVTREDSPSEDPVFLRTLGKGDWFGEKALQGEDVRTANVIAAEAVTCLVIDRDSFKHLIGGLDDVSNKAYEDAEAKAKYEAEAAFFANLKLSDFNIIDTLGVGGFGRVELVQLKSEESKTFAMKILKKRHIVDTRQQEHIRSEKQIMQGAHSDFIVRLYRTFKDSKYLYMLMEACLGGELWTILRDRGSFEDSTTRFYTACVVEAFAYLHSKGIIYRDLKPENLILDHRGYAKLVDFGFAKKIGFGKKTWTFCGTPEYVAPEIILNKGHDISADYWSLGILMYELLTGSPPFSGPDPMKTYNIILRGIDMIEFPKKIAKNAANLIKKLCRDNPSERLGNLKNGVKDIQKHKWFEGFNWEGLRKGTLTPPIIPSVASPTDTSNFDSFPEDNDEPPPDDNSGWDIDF
Sequence of Epidermal growth factor receptor (Homo sapiens) (P00533 whole entry): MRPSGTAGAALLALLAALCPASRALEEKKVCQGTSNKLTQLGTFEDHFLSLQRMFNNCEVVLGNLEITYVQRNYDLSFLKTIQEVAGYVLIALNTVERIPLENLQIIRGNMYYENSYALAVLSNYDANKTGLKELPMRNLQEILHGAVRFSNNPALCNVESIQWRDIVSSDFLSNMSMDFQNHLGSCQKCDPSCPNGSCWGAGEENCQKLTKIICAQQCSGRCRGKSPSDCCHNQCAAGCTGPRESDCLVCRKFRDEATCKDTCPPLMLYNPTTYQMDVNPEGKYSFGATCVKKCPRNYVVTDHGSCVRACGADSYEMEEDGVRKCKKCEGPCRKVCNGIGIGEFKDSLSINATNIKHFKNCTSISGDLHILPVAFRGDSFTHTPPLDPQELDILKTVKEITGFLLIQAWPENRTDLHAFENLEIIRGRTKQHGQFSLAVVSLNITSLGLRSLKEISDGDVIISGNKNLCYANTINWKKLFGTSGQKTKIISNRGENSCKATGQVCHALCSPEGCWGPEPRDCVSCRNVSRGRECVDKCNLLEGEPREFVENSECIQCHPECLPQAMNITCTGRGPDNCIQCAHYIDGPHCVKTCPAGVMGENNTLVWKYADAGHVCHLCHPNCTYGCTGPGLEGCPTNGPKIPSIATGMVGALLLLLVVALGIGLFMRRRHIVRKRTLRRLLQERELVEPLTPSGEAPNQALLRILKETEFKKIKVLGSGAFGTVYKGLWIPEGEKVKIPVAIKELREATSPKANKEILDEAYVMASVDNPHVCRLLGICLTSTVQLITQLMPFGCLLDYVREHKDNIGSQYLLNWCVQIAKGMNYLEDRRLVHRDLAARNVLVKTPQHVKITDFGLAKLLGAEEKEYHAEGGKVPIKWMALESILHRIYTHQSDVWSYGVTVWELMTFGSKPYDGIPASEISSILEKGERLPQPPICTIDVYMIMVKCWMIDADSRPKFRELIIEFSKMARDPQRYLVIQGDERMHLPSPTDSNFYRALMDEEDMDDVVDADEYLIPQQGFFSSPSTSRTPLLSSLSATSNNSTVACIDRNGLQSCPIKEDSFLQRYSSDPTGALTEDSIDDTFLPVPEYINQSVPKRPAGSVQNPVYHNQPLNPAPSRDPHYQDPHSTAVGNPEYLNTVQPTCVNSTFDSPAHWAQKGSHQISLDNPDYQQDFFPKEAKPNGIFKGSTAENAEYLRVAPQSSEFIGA
Sequence of MAP kinase-interacting serine/threonine-protein kinase 2 (Homo sapiens) (Q9HBH9 whole entry, looked up): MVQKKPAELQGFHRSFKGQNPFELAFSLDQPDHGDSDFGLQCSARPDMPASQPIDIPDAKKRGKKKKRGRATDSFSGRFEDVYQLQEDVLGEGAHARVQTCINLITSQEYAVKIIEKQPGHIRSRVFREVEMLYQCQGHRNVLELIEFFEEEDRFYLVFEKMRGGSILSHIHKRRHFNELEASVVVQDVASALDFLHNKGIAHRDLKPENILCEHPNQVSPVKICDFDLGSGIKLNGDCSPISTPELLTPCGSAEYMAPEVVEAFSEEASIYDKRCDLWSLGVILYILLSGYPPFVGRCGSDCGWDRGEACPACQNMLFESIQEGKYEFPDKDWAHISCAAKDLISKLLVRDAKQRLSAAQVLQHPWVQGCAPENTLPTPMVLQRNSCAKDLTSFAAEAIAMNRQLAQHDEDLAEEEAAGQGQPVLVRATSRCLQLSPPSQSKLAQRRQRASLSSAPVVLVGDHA
Sequence of Serine/threonine-protein kinase pim-2 (Q9P1W9 whole entry): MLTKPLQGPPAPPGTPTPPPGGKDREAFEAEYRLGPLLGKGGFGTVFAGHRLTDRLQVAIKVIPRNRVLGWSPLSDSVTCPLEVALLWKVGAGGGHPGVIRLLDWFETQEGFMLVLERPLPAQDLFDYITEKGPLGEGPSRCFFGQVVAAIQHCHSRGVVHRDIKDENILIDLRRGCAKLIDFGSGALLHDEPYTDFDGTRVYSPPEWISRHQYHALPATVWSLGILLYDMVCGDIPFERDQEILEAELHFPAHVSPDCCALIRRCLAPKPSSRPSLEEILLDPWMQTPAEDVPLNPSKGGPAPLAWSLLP

Work on `NC(=O)c1ccc(NC(=O)NCc2cccc(C(=O)Nc3ccc4c(c3)CNCC4)c2)cc1` yielded an IC50 [1] of 3 µM, a residual activity [2] of 50% and an IC50 [3] of 0.004 µM. The residual activity [4] was over 50%, the residual activity [5] was over 50% and the residual activity [6] was over 50%. The residual activity [7] was over 50%, the residual activity [8] was over 50% and the residual activity [9] was over 50%. The residual activity [10] was over 50%, the residual activity [11] was over 50% and the residual activity [12] was over 50%. For the same compound, the residual activity [13] was over 50%, the residual activity [14] was over 50% and the residual activity [15] was over 50%. The residual activity [16] was over 50% and the residual activity [17] was over 50%.
Compound `COc1ccc(C(=O)NCc2cccc(C(=O)Nc3ccc4c(c3)CNCC4)c2)cc1OC` has an IC50 [18] of over 10 µM, an IC50 [19] of over 10 µM and an IC50 (Focal adhesion kinase 1) of over 10 µM. For the same compound, the IC50 [20] was over 10 µM, the IC50 [1] was 5.6 µM and the IC50 (Cytochrome P450 2D6) was over 30 µM. For the same compound, the IC50 (Cytochrome P450 3A4) was over 30 µM, the IC50 [3] was 0.033 µM and the residual activity [21] was over 50%. The residual activity [22] was over 50%, the residual activity [23] was over 50% and the residual activity [24] was over 50%. It also gave a residual activity [25] of over 50%, a residual activity [26] of over 50% and a residual activity [27] of over 50%. The residual activity [28] was over 50%, the residual activity [29] was over 50% and the residual activity [30] was over 50%. For the same compound, the residual activity [31] was over 50%, the residual activity [32] was over 50% and the residual activity [33] was over 50%. The residual activity [34] was over 50% and the residual activity [35] was over 50%.
